Assay results: ChEMBL document CHEMBL1201862, “PubChem BioAssay data set” (2004)
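Five compound concentrations were applied to cells in 96-well plates for 48 hours; endpoints were derived by simple linear interpolation of the resulting dose-response curve. GI50 marks 50% less growth.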 Activity calls are given as the source filed them. No stated cut-off is given here; in the data, active = GI50 up to about 1.1 µM and inactive = higher.

How the values were obtained:
Assay in all cases: NCI-60 cell line screen, 48 h
SF-539 = system: SF-539
MDA-MB-435 = system: MDA-MB-435
HL-60 = system: HL-60
OVCAR-3 = system: OVCAR-3
Malme-3M = system: Malme-3M
CCRF-CEM = system: CCRF-CEM
A549 = system: A549
M14 = system: M14
HT-29 = system: HT-29
EKVX = system: EKVX
HOP-62 = system: HOP-62
RPMI-8226 = system: RPMI-8226
SR = system: SR
SN12C = system: SN12C
NCI/ADR-RES = system: NCI/ADR-RES
UACC-62 = system: UACC-62
HCT-15 = system: HCT-15
Hs-578T = system: Hs-578T
SK-MEL-5 = system: SK-MEL-5
U-251 = system: U-251

| Compound | GI50 (SF-539) | GI50 (MDA-MB-435) | GI50 (HL-60) | GI50 (OVCAR-3) | GI50 (Malme-3M) | GI50 (CCRF-CEM) | GI50 (A549) | GI50 (M14) | GI50 (HT-29) | GI50 (EKVX) | GI50 (HOP-62) | GI50 (RPMI-8226) | GI50 (SR) | GI50 (SN12C) | GI50 (NCI/ADR-RES) | GI50 (UACC-62) | GI50 (HCT-15) [µM] | GI50 (Hs-578T) | GI50 (SK-MEL-5) | GI50 (U-251) |
| --- | --- | --- | --- | --- | --- | --- | --- | --- | --- | --- | --- | --- | --- | --- | --- | --- | --- | --- | --- | --- |
| COC(=O)/C=C\[C@H]1[C@H](C)N1S(=O)(=O)c1ccc(C)cc1 (stereo not given in full) | > 100 µM (inactive) | > 100 µM (inactive) | > 100 µM (inactive) | > 100 µM (inactive) | > 100 µM (inactive) | 91 µM (inactive) | > 100 µM (inactive) | > 100 µM (inactive) | > 100 µM (inactive) | > 100 µM (inactive) | > 100 µM (inactive) | > 100 µM (inactive) | > 100 µM (inactive) | > 100 µM (inactive) | > 100 µM (inactive) | > 100 µM (inactive) | 70.3 | > 100 µM (inactive) | > 100 µM (inactive) | > 100 µM (inactive) |
| ClCCCCCc1c2nc(c(CCCCCCl)c3ccc([nH]3)c(CCCCCCl)c3nc(c(CCCCCCl)c4ccc1[nH]4)C=C3)C=C2 | > 100 µM (inactive) | > 100 µM (inactive) | > 100 µM (inactive) | > 100 µM (inactive) | > 100 µM (inactive) | > 100 µM (inactive) | > 100 µM (inactive) | > 100 µM (inactive) | > 100 µM (inactive) | > 100 µM (inactive) | > 100 µM (inactive) | > 100 µM (inactive) | > 100 µM (inactive) | > 100 µM (inactive) | > 100 µM (inactive) | > 100 µM (inactive) | > 100 | > 100 µM (inactive) | > 100 µM (inactive) | > 100 µM (inactive) |
| Cc1cc(CS(=O)(=O)/C=C/c2ccccc2[N+](=O)[O-])c(CS(=O)(=O)/C=C/c2ccccc2[N+](=O)[O-])cc1C | 14.4 µM (inactive) | > 41.9 µM (inactive) | > 79.4 µM (inactive) | 49.1 µM (inactive) | 28 µM (inactive) | 21.5 µM (inactive) | 57.7 µM (inactive) | > 69.8 µM (inactive) | > 61.7 µM (inactive) | 29.9 µM (inactive) | 19.1 µM (inactive) | 9.42 µM (inactive) | 13.7 µM (inactive) | 52.6 µM (inactive) | 53.5 µM (inactive) | 23.6 µM (inactive) | > 33 | 3.44 µM (inactive) | 37.2 µM (inactive) | 19.6 µM (inactive) |
| CC(=O)O[C@H]1CC[C@H]2[C@@H]3CCC4C(C)=NNC(=O)C4[C@H]3CC[C@]12C (stereo not given in full) | 65.9 µM (inactive) | > 100 µM (inactive) | > 100 µM (inactive) | > 100 µM (inactive) | 99.8 µM (inactive) | > 100 µM (inactive) | > 100 µM (inactive) | > 100 µM (inactive) | > 100 µM (inactive) | 48.9 µM (inactive) | 19.8 µM (inactive) | > 100 µM (inactive) | > 100 µM (inactive) | 95.5 µM (inactive) | 45.4 µM (inactive) | > 100 µM (inactive) | > 100 | 17.8 µM (inactive) | > 100 µM (inactive) | 36.5 µM (inactive) |
| c1ccc2c(c1)SCCC2NC1=NCCO1 (stereo not given) | > 100 µM (inactive) | > 100 µM (inactive) | > 100 µM (inactive) | > 100 µM (inactive) | > 100 µM (inactive) | > 100 µM (inactive) | > 100 µM (inactive) | > 100 µM (inactive) | 89.5 µM (inactive) | > 100 µM (inactive) | > 100 µM (inactive) | > 100 µM (inactive) | > 100 µM (inactive) | > 100 µM (inactive) | > 100 µM (inactive) | > 100 µM (inactive) | > 100 | > 100 µM (inactive) | > 100 µM (inactive) | > 100 µM (inactive) |
